Results reported in PubChem BioAssay AID2060887 (Molecular Pharmacology Branch, DTP, NCI, 2025).
pIC50: −log10 of the molar value.

System: 782815-120-R-J1-PDC complex spheroid viability
Assay: Anticancer human tumor 782815-120-R-J1-PDC patient-derived colon adenocarcinoma cell line growth inhibition [RAS]
Details: for pIC50: curve of first compound; for viability, T/C: stronger effect = lower value
Summary of the method: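 Tumour cells grown as complex spheroids with HUVEC endothelial cells and mesenchymal stem cells, treated with RAS pathway inhibitor combinations. Each agent spans half-log steps from near clinical Cmax, or 10 microM where Cmax is unknown.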

[1] = second compound 0.000949 µM, first compound 0.0316 µM
[2] = second compound 0.000949 µM, first compound 0.1 µM
[3] = second compound 0.000949 µM, first compound 0.316 µM
[4] = second compound 0.000949 µM, first compound 1 µM
[5] = second compound 0.003 µM, first compound 0.0316 µM
[6] = second compound 0.003 µM, first compound 0.1 µM
[7] = second compound 0.003 µM, first compound 0.316 µM
[8] = second compound 0.003 µM, first compound 1 µM
[9] = second compound 0.00949 µM, first compound 0.0316 µM
[10] = second compound 0.00949 µM, first compound 0.1 µM
[11] = second compound 0.00949 µM, first compound 0.316 µM
[12] = second compound 0.00949 µM, first compound 1 µM
[13] = second compound 0.03 µM, first compound 0.0316 µM
[14] = second compound 0.03 µM, first compound 0.1 µM
[15] = second compound 0.03 µM, first compound 0.316 µM
[16] = second compound 0.03 µM, first compound 1 µM
[17] = second compound 0.0949 µM, first compound 0.0316 µM
[18] = second compound 0.0949 µM, first compound 0.1 µM
[19] = second compound 0.0949 µM, first compound 0.316 µM
[20] = second compound 0.0949 µM, first compound 1 µM
[21] = second compound 0.3 µM, first compound 0.0316 µM
[22] = second compound 0.3 µM, first compound 0.1 µM
[23] = second compound 0.3 µM, first compound 0.316 µM
[24] = second compound 0.3 µM, first compound 1 µM
[25] = second compound 0.000949 µM, first compound 3.16 µM
[26] = second compound 0.000949 µM, first compound 10 µM
[27] = second compound 0.003 µM, first compound 3.16 µM
[28] = second compound 0.003 µM, first compound 10 µM
[29] = second compound 0.00949 µM, first compound 3.16 µM
[30] = second compound 0.00949 µM, first compound 10 µM
[31] = second compound 0.03 µM, first compound 3.16 µM
[32] = second compound 0.03 µM, first compound 10 µM
[33] = second compound 0.0949 µM, first compound 3.16 µM
[34] = second compound 0.0949 µM, first compound 10 µM
[35] = second compound 0.3 µM, first compound 3.16 µM
[36] = second compound 0.3 µM, first compound 10 µM
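Note: spheroids exposed to compounds for 7 days before reading.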
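Throughout, for viability, T/C: 100% = DMSO vehicle control viability.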

CCN1CCN(Cc2ccc(Nc3ncc(F)c(-c4cc(F)c5nc(C)n(C(C)C)c5c4)n3)nc2)CC1 + CCn1c(-c2cccnc2C(C)OC)c2c3cc(ccc31)N1CCOC(CC(NC(=O)C(C(C)C)N(C)C(=O)C3(F)CCN(C(=O)C#CC(C)(C)N(C)C)CC3)C(=O)N3CCCC(N3)C(=O)OCC(C)(C)C2)C1
pIC50 (second compound 0.000949 µM): < 6.00 | pIC50 (second compound 0.003 µM): < 6.00 | pIC50 (second compound 0.00949 µM): < 6.00 | pIC50 (second compound 0.03 µM): < 6.00 | pIC50 (second compound 0.0949 µM): < 6.00 | pIC50 (second compound 0.3 µM): < 6.00 | viability, T/C (second compound 0.000949 µM, first compound 0.00316 µM): 104% | viability, T/C (second compound 0.000949 µM, first compound 0.01 µM): 99.3% | viability, T/C [1]: 106% | viability, T/C [2]: 92% | viability, T/C [3]: 124% | viability, T/C [4]: 125% | viability, T/C (second compound 0.003 µM, first compound 0.00316 µM): 95% | viability, T/C (second compound 0.003 µM, first compound 0.01 µM): 97% | viability, T/C [5]: 95.7% | viability, T/C [6]: 98% | viability, T/C [7]: 118% | viability, T/C [8]: 121% | viability, T/C (second compound 0.00949 µM, first compound 0.00316 µM): 96.3% | viability, T/C (second compound 0.00949 µM, first compound 0.01 µM): 99.6% | viability, T/C [9]: 102% | viability, T/C [10]: 103% | viability, T/C [11]: 118% | viability, T/C [12]: 127% | viability, T/C (second compound 0.03 µM, first compound 0.00316 µM): 99.8% | viability, T/C (second compound 0.03 µM, first compound 0.01 µM): 109% | viability, T/C [13]: 101% | viability, T/C [14]: 102% | viability, T/C [15]: 117% | viability, T/C [16]: 127% | viability, T/C (second compound 0.0949 µM, first compound 0.00316 µM): 92.3% | viability, T/C (second compound 0.0949 µM, first compound 0.01 µM): 95.5% | viability, T/C [17]: 97% | viability, T/C [18]: 102% | viability, T/C [19]: 123% | viability, T/C [20]: 134% | viability, T/C (second compound 0.3 µM, first compound 0.00316 µM): 92.8% | viability, T/C (second compound 0.3 µM, first compound 0.01 µM): 91.6% | viability, T/C [21]: 104% | viability, T/C [22]: 110% | viability, T/C [23]: 122% | viability, T/C [24]: 122%

C[C@@H](NC(=O)c1ncnc(N)c1Cl)c1ncc(C(=O)Nc2cc(C(F)(F)F)c(Cl)cn2)s1 + CCn1c(-c2cccnc2C(C)OC)c2c3cc(ccc31)N1CCOC(CC(NC(=O)C(C(C)C)N(C)C(=O)C3(F)CCN(C(=O)C#CC(C)(C)N(C)C)CC3)C(=O)N3CCCC(N3)C(=O)OCC(C)(C)C2)C1
pIC50 (second compound 0.000949 µM): < 5.00 | pIC50 (second compound 0.003 µM): < 5.00 | pIC50 (second compound 0.00949 µM): < 5.00 | pIC50 (second compound 0.03 µM): < 5.00 | pIC50 (second compound 0.0949 µM): 5.01 | pIC50 (second compound 0.3 µM): < 5.00 | viability, T/C [1]: 106% | viability, T/C [2]: 103% | viability, T/C [3]: 105% | viability, T/C [4]: 79.2% | viability, T/C [25]: 56.9% | viability, T/C [26]: 56.3% | viability, T/C [5]: 107% | viability, T/C [6]: 100% | viability, T/C [7]: 103% | viability, T/C [8]: 65.6% | viability, T/C [27]: 59.6% | viability, T/C [28]: 51.9% | viability, T/C [9]: 104% | viability, T/C [10]: 108% | viability, T/C [11]: 91.2% | viability, T/C [12]: 83.1% | viability, T/C [29]: 61.2% | viability, T/C [30]: 55% | viability, T/C [13]: 103% | viability, T/C [14]: 110% | viability, T/C [15]: 93.7% | viability, T/C [16]: 79.2% | viability, T/C [31]: 72.4% | viability, T/C [32]: 53.3% | viability, T/C [17]: 96.6% | viability, T/C [18]: 101% | viability, T/C [19]: 93.4% | viability, T/C [20]: 78.4% | viability, T/C [33]: 61.1% | viability, T/C [34]: 49.4% | viability, T/C [21]: 89.3% | viability, T/C [22]: 95% | viability, T/C [23]: 96.4% | viability, T/C [24]: 84% | viability, T/C [35]: 69.8% | viability, T/C [36]: 52.5%

Cc1nc(N2CCC3(CC2)COC(C)C3N)c(CO)nc1Sc1ccnc(N)c1Cl (stereo unspecified) + CCn1c(-c2cccnc2C(C)OC)c2c3cc(ccc31)N1CCOC(CC(NC(=O)C(C(C)C)N(C)C(=O)C3(F)CCN(C(=O)C#CC(C)(C)N(C)C)CC3)C(=O)N3CCCC(N3)C(=O)OCC(C)(C)C2)C1
pIC50 (second compound 0.000949 µM): < 5.00 | pIC50 (second compound 0.003 µM): < 5.00 | pIC50 (second compound 0.00949 µM): < 5.00 | pIC50 (second compound 0.03 µM): < 5.00 | pIC50 (second compound 0.0949 µM): < 5.00 | pIC50 (second compound 0.3 µM): < 5.00 | viability, T/C [1]: 108% | viability, T/C [2]: 88% | viability, T/C [3]: 99.2% | viability, T/C [4]: 94.2% | viability, T/C [25]: 98.6% | viability, T/C [26]: 93.6% | viability, T/C [5]: 93.1% | viability, T/C [6]: 95.5% | viability, T/C [7]: 104% | viability, T/C [8]: 94.5% | viability, T/C [27]: 96% | viability, T/C [28]: 95.7% | viability, T/C [9]: 95.2% | viability, T/C [10]: 95.7% | viability, T/C [11]: 91.4% | viability, T/C [12]: 98.9% | viability, T/C [29]: 111% | viability, T/C [30]: 94% | viability, T/C [13]: 101% | viability, T/C [14]: 92.6% | viability, T/C [15]: 92.2% | viability, T/C [16]: 98.6% | viability, T/C [31]: 102% | viability, T/C [32]: 87.7% | viability, T/C [17]: 94.5% | viability, T/C [18]: 99.6% | viability, T/C [19]: 103% | viability, T/C [20]: 95.7% | viability, T/C [33]: 101% | viability, T/C [34]: 90.1% | viability, T/C [21]: 93.3% | viability, T/C [22]: 90.1% | viability, T/C [23]: 87.5% | viability, T/C [24]: 96% | viability, T/C [35]: 101% | viability, T/C [36]: 91%
